# From article PMC5218480 (PLoS ONE, 2017)
# System: MV-4-11 cells
# Test: Gene expression microarray analysis (Affymetrix PrimeView) and GSEA
# Format: cell-based, human
# Design: RFU PODN (11730768_x_at) / Fold change /veh PODN (11730768_x_at) / RFU LINC00158 (11744669_a_at) / Fold change /veh LINC00158 (11744669_a_at) / RFU DUSP10 (11751237_a_at) / Fold change /veh DUSP10 (11751237_a_at) / RFU ID3 (11757404_x_at) / Fold change /veh ID3 (11757404_x_at) / RFU PLEKHG5 (11737974_s_at) / Fold change /veh PLEKHG5 (11737974_s_at) / RFU LRRC4B (11730491_at) / Fold change /veh LRRC4B (11730491_at) / RFU GIMAP4 (11747438_a_at) / Fold change /veh GIMAP4 (11747438_a_at) / RFU KRT8 (11758183_x_at) / Fold change /veh KRT8 (11758183_x_at) / RFU CNN1 (11734310_a_at) / Fold change /veh CNN1 (11734310_a_at) / RFU VPS37D (11726825_at) / Fold change /veh VPS37D (11726825_at) / RFU C10orf10 (11716522_x_at) / Fold change /veh C10orf10 (11716522_x_at) / RFU KIR2DL2 /// KIR2DL4 /// KIR2DL5A /// KIR2DL5B /// KIR2DS1 /// KIR2DS2 /// KIR2DS3 /// KIR2DS4 /// KIR3DL3 /// KIR3DL3 /// KIR3DS1 (11738374_at) / Fold change /veh KIR2DL2 /// KIR2DL4 /// KIR2DL5A /// KIR2DL5B /// KIR2DS1 /// KIR2DS2 /// KIR2DS3 /// KIR2DS4 /// KIR3DL3 /// KIR3DL3 /// KIR3DS1 (11738374_at) / RFU C1QL1 (11718748_at) / Fold change /veh C1QL1 (11718748_at) / RFU TMPRSS4 (11747572_a_at) / Fold change /veh TMPRSS4 (11747572_a_at) / RFU HAMP (11756126_x_at) / Fold change /veh HAMP (11756126_x_at) / RFU RNFT2 (11725882_a_at) / Fold change /veh RNFT2 (11725882_a_at) / RFU NR4A2 (11747474_a_at) / Fold change /veh NR4A2 (11747474_a_at) / RFU ABCC12 (11746883_a_at) / Fold change /veh ABCC12 (11746883_a_at) / RFU TMEM136 (11760407_x_at) / Fold change /veh TMEM136 (11760407_x_at) / RFU CLDN22 /// WWC2 (11732394_at) / Fold change /veh CLDN22 /// WWC2 (11732394_at) / RFU HLA-DPB1 (11760878_x_at) / Fold change /veh HLA-DPB1 (11760878_x_at) / RFU SPINT1 (11716480_a_at) / Fold change /veh SPINT1 (11716480_a_at) / RFU GAP43 (11754022_s_at) / Fold change /veh GAP43 (11754022_s_at) / RFU A4GNT (11735810_at) / Fold change /veh A4GNT (11735810_at) / RFU PRB3 (11715151_x_at) / Fold change /veh PRB3 (11715151_x_at) / RFU TUBB4B (11761932_at) / Fold change /veh TUBB4B (11761932_at) / RFU CAPN14 (11732068_a_at) / Fold change /veh CAPN14 (11732068_a_at) / RFU TMCC2 (11721928_a_at) / Fold change /veh TMCC2 (11721928_a_at) / RFU IRGQ (11745062_a_at) / Fold change /veh IRGQ (11745062_a_at) / RFU FAM174B (11720279_a_at) / Fold change /veh FAM174B (11720279_a_at) / RFU TMPRSS4 (11748680_a_at) / Fold change /veh TMPRSS4 (11748680_a_at) / RFU FAM212B (11763350_a_at) / Fold change /veh FAM212B (11763350_a_at) / RFU PLEKHG5 (11743358_a_at) / Fold change /veh PLEKHG5 (11743358_a_at) / RFU ZSCAN30 (11745921_a_at) / Fold change /veh ZSCAN30 (11745921_a_at) / RFU CMKLR1 (11741424_a_at) / Fold change /veh CMKLR1 (11741424_a_at) / RFU LOC101060620 /// MAPK8IP1 (11723275_at) / Fold change /veh LOC101060620 /// MAPK8IP1 (11723275_at) / RFU SPTSSB (11747773_x_at) / Fold change /veh SPTSSB (11747773_x_at) / RFU PRSS12 (11739890_at) / Fold change /veh PRSS12 (11739890_at) / RFU BIN1 (11741810_x_at) / Fold change /veh BIN1 (11741810_x_at) / RFU WNT11 (11732464_a_at) / Fold change /veh WNT11 (11732464_a_at) / RFU C10orf10 (11716521_a_at) / Fold change /veh C10orf10 (11716521_a_at) / RFU C5orf56 (11738089_at) / Fold change /veh C5orf56 (11738089_at) / RFU CYB561 (11721691_x_at) / Fold change /veh CYB561 (11721691_x_at) / RFU ANKRD19P (11752326_a_at) / Fold change /veh ANKRD19P (11752326_a_at) / RFU OR2T12 /// OR2T33 /// OR2T8 (11738714_s_at) / Fold change /veh OR2T12 /// OR2T33 /// OR2T8 (11738714_s_at) / RFU VCAN (11748164_a_at) / Fold change /veh VCAN (11748164_a_at) / RFU JSRP1 (11732532_at) / Fold change /veh JSRP1 (11732532_at) / RFU KRTAP10-11 (11738290_x_at) / Fold change /veh KRTAP10-11 (11738290_x_at) / RFU MYO3A (11730013_a_at) / Fold change /veh MYO3A (11730013_a_at) / RFU EBF3 (11725865_a_at) / Fold change /veh EBF3 (11725865_a_at) / RFU CAMK2N1 (11719241_x_at) / Fold change /veh CAMK2N1 (11719241_x_at) / RFU C5orf56 (11738088_a_at) / Fold change /veh C5orf56 (11738088_a_at) / RFU OLFML3 (11715873_a_at) / Fold change /veh OLFML3 (11715873_a_at) / RFU LOC100653217 /// NTM (11731650_a_at) / Fold change /veh LOC100653217 /// NTM (11731650_a_at) / RFU MAPK11 (11762145_a_at) / Fold change /veh MAPK11 (11762145_a_at) / RFU FIZ1 (11724087_x_at) / Fold change /veh FIZ1 (11724087_x_at) / RFU OASL (11726364_x_at) / Fold change /veh OASL (11726364_x_at) / RFU SOX15 (11748057_x_at) / Fold change /veh SOX15 (11748057_x_at) / RFU CD79A (11719716_a_at) / Fold change /veh CD79A (11719716_a_at) / RFU HIST1H1D (11736915_at) / Fold change /veh HIST1H1D (11736915_at) / RFU CASKIN2 (11723855_a_at) / Fold change /veh CASKIN2 (11723855_a_at) / RFU LOC730098 (11760151_x_at) / Fold change /veh LOC730098 (11760151_x_at) / RFU OR4N2 (11742367_at) / Fold change /veh OR4N2 (11742367_at) / RFU PRRT2 (11749266_a_at) / Fold change /veh PRRT2 (11749266_a_at) / RFU SNX32 (11753110_a_at) / Fold change /veh SNX32 (11753110_a_at) / RFU CDHR5 (11726645_a_at) / Fold change /veh CDHR5 (11726645_a_at) / RFU RCAN1 (11760418_a_at) / Fold change /veh RCAN1 (11760418_a_at) / RFU FAM167A (11723789_a_at) / Fold change /veh FAM167A (11723789_a_at) / RFU FAM26E (11764081_at) / Fold change /veh FAM26E (11764081_at) / RFU ISYNA1 (11749810_s_at) / Fold change /veh ISYNA1 (11749810_s_at) / RFU ACY1 (11761880_at) / Fold change /veh ACY1 (11761880_at) / RFU 11764098_at / Fold change /veh 11764098_at / RFU SAMD14 (11745864_x_at) / Fold change /veh SAMD14 (11745864_x_at) / RFU NPB (11741838_a_at) / Fold change /veh NPB (11741838_a_at) / RFU TMPRSS6 (11731388_a_at) / Fold change /veh TMPRSS6 (11731388_a_at) / RFU KRTAP10-2 (11738614_at) / Fold change /veh KRTAP10-2 (11738614_at) / RFU ARHGAP8 /// PRR5-ARHGAP8 (11727945_x_at) / Fold change /veh ARHGAP8 /// PRR5-ARHGAP8 (11727945_x_at) / RFU KRTAP5-7 /// NADSYN1 (11734609_at) / Fold change /veh KRTAP5-7 /// NADSYN1 (11734609_at) / RFU RASL12 (11751679_a_at) / Fold change /veh RASL12 (11751679_a_at) / RFU CDKN2B (11736163_a_at) / Fold change /veh CDKN2B (11736163_a_at) / RFU PRF1 (11729649_at) / Fold change /veh PRF1 (11729649_at) / RFU, ZNF638 /// ZNF638-IT1 / Fold change vs veh, ZNF638 /// ZNF638-IT1 / RFU, PANK3 / Fold change vs veh, PANK3 / RFU, SH3YL1 / Fold change vs veh, SH3YL1 / RFU, ZEB2 / Fold change vs veh, ZEB2 / RFU, NRIP1 / Fold change vs veh, NRIP1 / RFU, PTTG1IP / Fold change vs veh, PTTG1IP / RFU, CAPN2 / Fold change vs veh, CAPN2 / RFU, MED14 / Fold change vs veh, MED14 / RFU, SNORA58 / Fold change vs veh, SNORA58 / RFU, C1orf63 / Fold change vs veh, C1orf63 / RFU, LRRFIP1 / Fold change vs veh, LRRFIP1 / RFU, NDUFAF7 / Fold change vs veh, NDUFAF7 / RFU, SLC12A2 / Fold change vs veh, SLC12A2 / RFU, IBTK / Fold change vs veh, IBTK / RFU, ESF1 / Fold change vs veh, ESF1 / Fold change vs veh, TMEM50B / RFU, TAOK1 / Fold change vs veh, TAOK1 / RFU, ACBD3 / Fold change vs veh, ACBD3 / RFU, TMA16 / Fold change vs veh, TMA16 / RFU, RWDD3 / Fold change vs veh, RWDD3 / RFU, BCAT1 / Fold change vs veh, BCAT1 / RFU, EDEM3 / Fold change vs veh, EDEM3 / RFU, TMEM33 / Fold change vs veh, TMEM33 / RFU, WDR75 / Fold change vs veh, WDR75 / RFU, AHCTF1 / Fold change vs veh, AHCTF1 / RFU, TFRC / Fold change vs veh, TFRC / RFU, ZDHHC17 / Fold change vs veh, ZDHHC17 / RFU, NOM1 / Fold change vs veh, NOM1 / RFU, ARL8B / Fold change vs veh, ARL8B / RFU, ZBTB11 / Fold change vs veh, ZBTB11 / RFU, TAMM41 / Fold change vs veh, TAMM41 / RFU, KIAA1704 /// LOC100996395 / Fold change vs veh, KIAA1704 /// LOC100996395 / RFU, ING1 / Fold change vs veh, ING1 / RFU, TRMT61B / Fold change vs veh, TRMT61B / RFU, FUBP3 / Fold change vs veh, FUBP3 / RFU, TP53 / Fold change vs veh, TP53 / RFU, TNKS2 / Fold change vs veh, TNKS2 / RFU, ZFP14 / Fold change vs veh, ZFP14 / RFU, ACTR2 / Fold change vs veh, ACTR2 / RFU, PPP3R1 / Fold change vs veh, PPP3R1 / RFU, PIK3R1 / Fold change vs veh, PIK3R1 / RFU, HNRNPA1 / Fold change vs veh, HNRNPA1 / RFU, RNF170 / Fold change vs veh, RNF170 / RFU, ZNF28 / Fold change vs veh, ZNF28 / RFU, RNGTT / Fold change vs veh, RNGTT / RFU, OGT / Fold change vs veh, OGT / RFU, BRD1 / Fold change vs veh, BRD1 / RFU, MARS / Fold change vs veh, MARS / RFU, ZNF655 / Fold change vs veh, ZNF655 / RFU, FAHD1 / Fold change vs veh, FAHD1 / RFU, BDP1 / Fold change vs veh, BDP1 / RFU, LRRCC1 / Fold change vs veh, LRRCC1 / RFU, ARID1A / Fold change vs veh, ARID1A / RFU, ZNF146 / Fold change vs veh, ZNF146 / RFU, ZNF330 / Fold change vs veh, ZNF330 / RFU, GPN3 / Fold change vs veh, GPN3 / RFU, C9orf123 / Fold change vs veh, C9orf123 / RFU, N4BP2L2 / Fold change vs veh, N4BP2L2 / RFU, ARFIP1 / Fold change vs veh, ARFIP1 / RFU, FAM179B / Fold change vs veh, FAM179B / RFU, BCL10 / Fold change vs veh, BCL10 / RFU, UHRF1BP1L / Fold change vs veh, UHRF1BP1L / RFU, BET1 / Fold change vs veh, BET1 / RFU, CNOT2 / Fold change vs veh, CNOT2 / RFU, ZNF268 / Fold change vs veh, ZNF268 / Fold change vs veh, ZNF507 / RFU, DGCR2 / Fold change vs veh, DGCR2 / RFU, WDSUB1 / Fold change vs veh, WDSUB1 / Fold change vs veh, HSP90B1 /// MIR3652 / RFU, ADSS / Fold change vs veh, ADSS / RFU, GK / Fold change vs veh, GK / RFU, ZNF148 / Fold change vs veh, ZNF148 / RFU, TAF9 / Fold change vs veh, TAF9 / RFU, SLC1A5 / Fold change vs veh, SLC1A5 / RFU, SLMO2 / Fold change vs veh, SLMO2 / RFU, ABCC4 / Fold change vs veh, ABCC4 / RFU, LOC101060439 /// RAP1B / Fold change vs veh, LOC101060439 /// RAP1B / RFU, RFX7 / Fold change vs veh, RFX7 / RFU, GTPBP10 / Fold change vs veh, GTPBP10 / RFU, CNEP1R1 / Fold change vs veh, CNEP1R1 / RFU, BIVM-ERCC5 /// ERCC5 / Fold change vs veh, BIVM-ERCC5 /// ERCC5 / RFU, ILF3 / Fold change vs veh, ILF3 / RFU 11762660_at / Fold change /veh 11762660_at / RFU VCAN (11757783_s_at) / Fold change /veh VCAN (11757783_s_at) / RFU DDX43 (11728927_at) / Fold change /veh DDX43 (11728927_at) / RFU KRT8 (11758188_x_at) / Fold change /veh KRT8 (11758188_x_at) / RFU NKD1 (11759106_at) / Fold change /veh NKD1 (11759106_at) / RFU SRD5A1 (11742802_a_at) / Fold change /veh SRD5A1 (11742802_a_at) / RFU TPSAB1 /// TPSB2 (11721975_s_at) / Fold change /veh TPSAB1 /// TPSB2 (11721975_s_at) / RFU GSTM3 (11746129_a_at) / Fold change /veh GSTM3 (11746129_a_at) / RFU IL23R (11737362_x_at) / Fold change /veh IL23R (11737362_x_at) / RFU TMEM51 (11727254_a_at) / Fold change /veh TMEM51 (11727254_a_at) / RFU PIWIL2 (11732686_x_at) / Fold change /veh PIWIL2 (11732686_x_at) / RFU ORM1 (11744905_x_at) / Fold change /veh ORM1 (11744905_x_at) / RFU CCDC152 (11743942_at) / Fold change /veh CCDC152 (11743942_at) / RFU ECM1 (11717891_a_at) / Fold change /veh ECM1 (11717891_a_at) / RFU IL23R (11748794_a_at) / Fold change /veh IL23R (11748794_a_at) / RFU TNFAIP8L3 (11732012_x_at) / Fold change /veh TNFAIP8L3 (11732012_x_at) / RFU MBOAT4 (11741988_at) / Fold change /veh MBOAT4 (11741988_at) / RFU 11764193_at / Fold change /veh 11764193_at / RFU TMEM53 (11763286_at) / Fold change /veh TMEM53 (11763286_at) / RFU MAGEB2 (11727129_at) / Fold change /veh MAGEB2 (11727129_at) / RFU TMEM200A (11744735_a_at) / Fold change /veh TMEM200A (11744735_a_at) / RFU CCDC152 (11751479_a_at) / Fold change /veh CCDC152 (11751479_a_at) / RFU FAM211A (11726209_a_at) / Fold change /veh FAM211A (11726209_a_at) / RFU RGS16 (11746705_a_at) / Fold change /veh RGS16 (11746705_a_at) / RFU VCAN (11755009_s_at) / Fold change /veh VCAN (11755009_s_at) / RFU RHOB (11743442_s_at) / Fold change /veh RHOB (11743442_s_at) / RFU RGS16 (11720943_a_at) / Fold change /veh RGS16 (11720943_a_at) / RFU RGS16 (11720944_at) / Fold change /veh RGS16 (11720944_at) / RFU, VPS4B / Fold change vs veh, VPS4B / RFU, CREB1 / Fold change vs veh, CREB1 / RFU, DNAJC13 / Fold change vs veh, DNAJC13 / RFU, GNAQ / Fold change vs veh, GNAQ / RFU, CDK5R1 / Fold change vs veh, CDK5R1 / RFU, ZRANB3 / Fold change vs veh, ZRANB3 / RFU, CUL4A / Fold change vs veh, CUL4A / RFU, CCNY / Fold change vs veh, CCNY / RFU, UFL1 / Fold change vs veh, UFL1 / RFU, COG3 / Fold change vs veh, COG3 / RFU, DIAPH2 / Fold change vs veh, DIAPH2 / RFU, SKA2 / Fold change vs veh, SKA2 / RFU, AFF3 / Fold change vs veh, AFF3 / RFU, LMF1 / Fold change vs veh, LMF1 / RFU, IPO11 / Fold change vs veh, IPO11 / RFU, DFFB / Fold change vs veh, DFFB / RFU, FOXP1 / Fold change vs veh, FOXP1 / RFU, CARD8 / Fold change vs veh, CARD8 / RFU, STRN3 / Fold change vs veh, STRN3 / RFU, ADK / Fold change vs veh, ADK / RFU, RASSF2 / Fold change vs veh, RASSF2 / RFU, WIPF1 / Fold change vs veh, WIPF1 / RFU, LARP1B / Fold change vs veh, LARP1B / RFU, RASA1 / Fold change vs veh, RASA1 / RFU, RB1 / Fold change vs veh, RB1 / RFU, PPFIA1 / Fold change vs veh, PPFIA1 / RFU, MAT2A / Fold change vs veh, MAT2A / RFU, CCT5 / Fold change vs veh, CCT5 / RFU, WDR92 / Fold change vs veh, WDR92 / RFU, CUX1 / Fold change vs veh, CUX1 / RFU, TTC7A / Fold change vs veh, TTC7A / RFU, TMEM135 / Fold change vs veh, TMEM135 / RFU, DEPTOR / Fold change vs veh, DEPTOR / RFU, CPM / Fold change vs veh, CPM / RFU, DNAJB6 / Fold change vs veh, DNAJB6 / RFU, CACNA2D3 / Fold change vs veh, CACNA2D3 / RFU, DTX4 / Fold change vs veh, DTX4 / RFU, TFCP2 / Fold change vs veh, TFCP2 / RFU, GMCL1 /// GMCL1P1 / Fold change vs veh, GMCL1 /// GMCL1P1 / RFU, AEBP2 / Fold change vs veh, AEBP2 / RFU, SNHG1 /// SNORD22 /// SNORD25 /// SNORD26 /// SNORD27 /// SNORD28 /// SNORD29 /// SNORD31 / Fold change vs veh, SNHG1 /// SNORD22 /// SNORD25 /// SNORD26 /// SNORD27 /// SNORD28 /// SNORD29 /// SNORD31 / Fold change (Aza/veh), C12orf56 (ProbeSet 11735607_a_at) / Fold change (ACY-1035/veh), C12orf56 (ProbeSet 11735607_a_at) / Fold change (Aza/veh), FGFR1OP (ProbeSet 11751329_s_at) / Fold change (ACY-1035/veh), FGFR1OP (ProbeSet 11751329_s_at) / Fold change (Aza/veh), VPS36 (ProbeSet 11739960_a_at) / Fold change (ACY-1035/veh), VPS36 (ProbeSet 11739960_a_at) / RFU SYPL1 (11715823_x_at) / Fold change /veh SYPL1 (11715823_x_at) / RFU IGFBP7 (11715501_s_at) / Fold change /veh IGFBP7 (11715501_s_at) / RFU REEP3 (11722064_at) / Fold change /veh REEP3 (11722064_at) / RFU IGLL1 (11728026_x_at) / Fold change /veh IGLL1 (11728026_x_at): dose or concentration left out as unconfirmed
# Settings: MV-4-11 cells, 48 hours
structure (smiles),measurement,value
Nc1ncn([C@@H]2O[C@H](CO)[C@@H](O)[C@H]2O)c(=O)n1 [azacitidine],Fold change /veh C5orf56 (11738089_at),1.15
